The text below walks through data of US6267968A, “MDP derivatives and conjugates having haematipoietic function stimulating activity, and compositions containing same” (Vacsyn S.A., priority 1995, dated 2001).

In test [1] the test system is circulating leukocytes, neutrophils and myelocytes. The test is described as follows: Intravenous or oral Muradimetide, cell counts modified by intravenous AZT (Example 2). It is filed as in vivo, male CDI mice. The method, then:
Treatment with AZT alone classically induces a decrease in the number of circulating leukocytes and neutrophils. This decrease is followed by a restoration occurring approximately 4 to 7 days after the beginning of the treatment. When Muradimetide has been administered systemically or orally after a treatment with 40 mg/kg of AZT, there is no fall in the number of cells and, on the contrary, there is a multiplication by at least 1.5 of the number of leukocytes and a tripling of the number of neutrophils, this already occurring after 4 days.
Male CDI mice (5 per group) were injected with AZT at a dose of 40 mg per kg on days 0 to 3. Muradimetide is administered on the same days at a dose of 10 mg per kg intravenously or 50 mg per kg orally. Cell counts are done an day 0 (before the treatment) and on days 3 and 4.

Test [2] has the same test system. The experiment in a line: Oral Muradimetide with nonmyelotoxic or myelotoxic intravenous doses of AZT, cell counts (Example 8). It is filed as in vivo, female Swiss mice. The following applies: Muradimetide 25 mg per kg orally 4 hours before AZT i.v. 5 or 40 mg per kg, days 0-3. The method, then:
In this experiment female Swiss mice were injected intravenously with AZT at a dose of 5 or 40 mg per kg on days 0, 1, 2 and 3. On each of the 4 days, and 4 hours before the administration of AZT, groups of mice consisting of 5 individuals received orally either buffer or Muradimetide at a dose of 25 mg per kg.
Cell counts are done on days 0, 1, 2, 3, 4 and 7.
FIG. 3 represents the same experiment in which the myelocytes are counted.

The mark [3] stands for this setting: Muradimetide i.v. 10 mg/kg with AZT i.v. 40 mg/kg, day 0 (before the treatment).
Setting [4] is: Muradimetide i.v. 10 mg/kg with AZT i.v. 40 mg/kg, day 3.
Where [5] appears, read: Muradimetide i.v. 10 mg/kg with AZT i.v. 40 mg/kg, day 4.
Where [6] appears, read: Muradimetide p.o. 50 mg/Kg with AZT i.v. 40 mg/kg, day 0 (before the treatment).
The mark [7] stands for this setting: Muradimetide p.o. 50 mg/Kg with AZT i.v. 40 mg/kg, day 3.
Setting [8] is: Muradimetide p.o. 50 mg/Kg with AZT i.v. 40 mg/kg, day 4.
Where [9] appears, read: Muradimetide systemically or orally after treatment with 40 mg/kg of AZT, after 4 days.

The structures appear in SMILES notation.

For the compound `COC(=O)CC[C@@H](NC(=O)[C@H](C)NC(=O)[C@@H](C)O[C@H]1[C@H](O)[C@@H](CO)OC(O)[C@@H]1NC(C)=O)C(=O)OC` (stereo partly drawn) [Muradimetide, Nac--Mur--L--Ala--D--Glu--[OCH3]--OCH3], the Leukocytes is reported as 6.0 ± 3.4 × 10^6 /ml in test [1] (Muradimetide i.v. 10 mg/kg days 0-3 with AZT i.v. 40 mg/kg, day 0 (before the treatment)); 5.9 ± 2.9 × 10^6 /ml in test [1] (Muradimetide i.v. 10 mg/kg days 0-3 with AZT i.v. 40 mg/kg, day 3); 7.6 ± 1.6 × 10^6 /ml in test [1] (Muradimetide i.v. 10 mg/kg days 0-3 with AZT i.v. 40 mg/kg, day 4); 4.8 ± 0.4 × 10^6 /ml in test [1] (Muradimetide p.o. 50 mg/Kg days 0-3 with AZT i.v. 40 mg/kg, day 0 (before the treatment)); 6.1 ± 1.4 × 10^6 /ml in test [1] (Muradimetide p.o. 50 mg/Kg days 0-3 with AZT i.v. 40 mg/kg, day 3); 8.1 ± 2.9 × 10^6 /ml in test [1] (Muradimetide p.o. 50 mg/Kg days 0-3 with AZT i.v. 40 mg/kg, day 4). In addition, the Myelocytes was 5 ± 7 × 10^4 /ml in test [1] (setting [3]); 145 ± 83 × 10^4 /ml in test [1] (setting [4]); 117 ± 46 × 10^4 /ml in test [1] (setting [5]); 14 ± 13 × 10^4 /ml in test [1] (setting [6]); 123 ± 55 × 10^4 /ml in test [1] (setting [7]); 138 ± 59 × 10^4 /ml in test [1] (setting [8]). In addition, the Neutrophils is reported as 2.0 ± 1.3 × 10^6 /ml in test [1] (setting [3]); 1.5 ± 0.8 × 10^6 /ml in test [1] (setting [4]); 4.6 ± 1.5 × 10^6 /ml in test [1] (setting [5]); 1.4 ± 0.5 × 10^6 /ml in test [1] (setting [6]); 1.6 ± 0.5 × 10^6 /ml in test [1] (setting [7]); 4.3 ± 2.47 × 10^6 /ml in test [1] (setting [8]). Further, the “increase of the number of neutrophils” value in test [1] (setting [9]) is given as “tripling”. In test [1] (setting [9]), the “multiplication of the number of leukocytes” value is reported as “at least 1.5”. Further, in test [1] (with AZT 40 mg/kg i.v., irrespective of mode of administration of Muradimetide), the “percentage of myelocytes or of promyelocytes” value is “spectacular increase”. The “time of maximum effect on leukocyte, neutrophil and myelocyte counts (FIGS. 1-3)” value in test [2] turned out to be 4 days.
